How the values were obtained:
Assay in all cases: biochemical
Design in all cases: KINOMEscan active-site-directed competition binding panel, 468 kinases, percent of DMSO control at 1 uM
Conditions in all cases: KINOMEscan binding, percent of DMSO control; read-out: Ctrl%
p38-beta = molecular target: T1, p38-beta (Homo sapiens, UniProt Q15759)
T1 construct: gene MAPK11

PRKG2 = PRKG2 (Homo sapiens, UniProt Q13237)
NLK = NLK (Homo sapiens, UniProt Q9UBE8)
[1] = molecular target: T2, RSK3(Kin.Dom.2-C-terminal) (Homo sapiens, UniProt Q15349)
T2 construct: gene RPS6KA2; Kin.Dom.2-C-terminal

ZAK = molecular target: T3, ZAK (Homo sapiens, UniProt Q9NYL2)
T3 construct: gene MAP3K20

[2] = molecular target: T4, TYK2(JH1domain-catalytic) (Homo sapiens, UniProt P29597)
T4 construct: JH1domain-catalytic
T4 sequence (P29597 whole entry): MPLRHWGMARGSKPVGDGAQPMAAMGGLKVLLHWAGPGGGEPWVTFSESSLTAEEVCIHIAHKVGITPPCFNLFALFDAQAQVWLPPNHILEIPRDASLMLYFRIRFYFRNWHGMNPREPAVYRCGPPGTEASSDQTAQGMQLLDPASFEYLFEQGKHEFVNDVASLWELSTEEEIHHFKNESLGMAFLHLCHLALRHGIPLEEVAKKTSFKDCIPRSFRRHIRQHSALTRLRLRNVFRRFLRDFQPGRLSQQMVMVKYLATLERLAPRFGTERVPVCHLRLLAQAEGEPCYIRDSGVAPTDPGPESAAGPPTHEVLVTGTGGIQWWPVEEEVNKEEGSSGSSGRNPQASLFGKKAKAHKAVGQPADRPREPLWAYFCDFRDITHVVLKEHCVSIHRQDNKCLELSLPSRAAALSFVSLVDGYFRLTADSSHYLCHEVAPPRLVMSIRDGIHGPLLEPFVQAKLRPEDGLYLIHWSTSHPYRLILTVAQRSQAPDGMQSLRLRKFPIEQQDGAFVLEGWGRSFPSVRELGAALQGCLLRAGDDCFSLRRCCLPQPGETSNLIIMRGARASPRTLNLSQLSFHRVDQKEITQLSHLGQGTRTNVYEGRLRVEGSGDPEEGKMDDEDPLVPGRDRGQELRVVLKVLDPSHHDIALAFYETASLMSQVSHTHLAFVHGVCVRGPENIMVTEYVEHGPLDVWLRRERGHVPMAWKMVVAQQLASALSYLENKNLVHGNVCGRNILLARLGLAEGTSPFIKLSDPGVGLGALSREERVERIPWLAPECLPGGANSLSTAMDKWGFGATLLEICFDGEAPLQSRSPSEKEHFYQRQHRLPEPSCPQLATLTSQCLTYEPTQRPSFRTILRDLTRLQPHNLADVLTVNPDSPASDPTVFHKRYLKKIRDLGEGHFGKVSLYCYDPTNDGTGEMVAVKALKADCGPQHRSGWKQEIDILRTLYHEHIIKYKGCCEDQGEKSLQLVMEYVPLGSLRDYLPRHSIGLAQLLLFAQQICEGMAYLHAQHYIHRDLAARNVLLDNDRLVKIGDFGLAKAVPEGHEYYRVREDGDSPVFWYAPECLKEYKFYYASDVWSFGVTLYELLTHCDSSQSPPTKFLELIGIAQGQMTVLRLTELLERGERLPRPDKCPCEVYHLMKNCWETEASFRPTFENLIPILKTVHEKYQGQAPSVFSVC

RET(V804L) = RET(V804L) (Homo sapiens, UniProt P07949, V804L)
GRK7 = GRK7 (Homo sapiens, UniProt Q8WTQ7)
GRK7, sequence (Q8WTQ7 whole entry): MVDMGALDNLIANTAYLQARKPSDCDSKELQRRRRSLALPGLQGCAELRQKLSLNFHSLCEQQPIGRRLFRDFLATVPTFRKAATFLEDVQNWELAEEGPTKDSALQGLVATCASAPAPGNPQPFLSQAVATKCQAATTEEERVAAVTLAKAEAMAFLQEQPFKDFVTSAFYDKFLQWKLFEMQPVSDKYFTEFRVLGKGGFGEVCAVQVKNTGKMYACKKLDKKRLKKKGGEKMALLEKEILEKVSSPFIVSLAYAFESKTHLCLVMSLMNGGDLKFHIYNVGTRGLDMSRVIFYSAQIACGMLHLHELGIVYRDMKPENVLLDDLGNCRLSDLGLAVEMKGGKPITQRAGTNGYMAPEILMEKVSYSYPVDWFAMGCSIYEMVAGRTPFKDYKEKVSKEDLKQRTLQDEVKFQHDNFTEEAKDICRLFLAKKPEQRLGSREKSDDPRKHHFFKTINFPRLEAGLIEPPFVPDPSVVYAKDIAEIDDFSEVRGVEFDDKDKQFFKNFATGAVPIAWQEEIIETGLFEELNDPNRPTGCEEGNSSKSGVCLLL

[3] = molecular target: T5, ABL1(T315I)-nonphosphorylated (Homo sapiens, UniProt P00519, T315I)
T5 construct: nonphosphorylated

SGK3 = SGK3 (Homo sapiens, UniProt Q96BR1)
SRMS = SRMS (Homo sapiens, UniProt Q9H3Y6)
CDKL1 = CDKL1 (Homo sapiens, UniProt Q00532)
EPHA7 = EPHA7 (Homo sapiens, UniProt Q15375)
EGFR(G719C) = EGFR(G719C) (Homo sapiens, UniProt P00533, G719C)
EGFR(G719C), sequence (P00533 whole entry G719C): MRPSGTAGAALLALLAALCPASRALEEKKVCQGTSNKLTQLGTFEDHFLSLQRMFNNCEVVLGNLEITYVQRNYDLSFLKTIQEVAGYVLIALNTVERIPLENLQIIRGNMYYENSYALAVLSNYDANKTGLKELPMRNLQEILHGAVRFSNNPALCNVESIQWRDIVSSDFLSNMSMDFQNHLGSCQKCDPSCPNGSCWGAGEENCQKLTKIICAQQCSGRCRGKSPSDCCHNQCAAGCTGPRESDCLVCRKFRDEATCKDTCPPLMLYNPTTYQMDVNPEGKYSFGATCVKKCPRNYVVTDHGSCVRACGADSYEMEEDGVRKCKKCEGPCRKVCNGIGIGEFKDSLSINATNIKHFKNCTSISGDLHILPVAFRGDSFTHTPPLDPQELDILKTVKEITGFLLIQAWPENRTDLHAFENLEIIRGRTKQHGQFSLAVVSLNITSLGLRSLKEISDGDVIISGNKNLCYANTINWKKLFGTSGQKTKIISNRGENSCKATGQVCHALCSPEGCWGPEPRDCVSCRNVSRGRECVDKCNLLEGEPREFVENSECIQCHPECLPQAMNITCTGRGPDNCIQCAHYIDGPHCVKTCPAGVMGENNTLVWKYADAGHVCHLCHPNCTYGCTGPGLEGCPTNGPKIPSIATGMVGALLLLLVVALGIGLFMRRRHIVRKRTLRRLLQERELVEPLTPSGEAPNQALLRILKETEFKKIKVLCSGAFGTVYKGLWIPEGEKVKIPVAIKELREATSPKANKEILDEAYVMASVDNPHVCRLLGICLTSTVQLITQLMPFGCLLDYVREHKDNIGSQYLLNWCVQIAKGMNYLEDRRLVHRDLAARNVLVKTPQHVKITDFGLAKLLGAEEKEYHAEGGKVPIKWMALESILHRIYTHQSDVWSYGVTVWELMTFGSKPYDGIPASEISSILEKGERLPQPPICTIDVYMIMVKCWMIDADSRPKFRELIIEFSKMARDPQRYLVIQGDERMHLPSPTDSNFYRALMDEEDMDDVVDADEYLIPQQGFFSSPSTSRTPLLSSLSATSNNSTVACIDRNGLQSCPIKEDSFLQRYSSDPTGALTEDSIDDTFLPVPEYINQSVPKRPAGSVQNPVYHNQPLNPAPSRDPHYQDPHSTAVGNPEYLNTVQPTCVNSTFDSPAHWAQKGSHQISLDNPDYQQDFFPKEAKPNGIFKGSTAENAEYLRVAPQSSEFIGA

MAP3K4 = MAP3K4 (Homo sapiens, UniProt Q9Y6R4)
PLK2 = PLK2 (Homo sapiens, UniProt Q9NYY3)
PLK2, sequence (Q9NYY3 whole entry): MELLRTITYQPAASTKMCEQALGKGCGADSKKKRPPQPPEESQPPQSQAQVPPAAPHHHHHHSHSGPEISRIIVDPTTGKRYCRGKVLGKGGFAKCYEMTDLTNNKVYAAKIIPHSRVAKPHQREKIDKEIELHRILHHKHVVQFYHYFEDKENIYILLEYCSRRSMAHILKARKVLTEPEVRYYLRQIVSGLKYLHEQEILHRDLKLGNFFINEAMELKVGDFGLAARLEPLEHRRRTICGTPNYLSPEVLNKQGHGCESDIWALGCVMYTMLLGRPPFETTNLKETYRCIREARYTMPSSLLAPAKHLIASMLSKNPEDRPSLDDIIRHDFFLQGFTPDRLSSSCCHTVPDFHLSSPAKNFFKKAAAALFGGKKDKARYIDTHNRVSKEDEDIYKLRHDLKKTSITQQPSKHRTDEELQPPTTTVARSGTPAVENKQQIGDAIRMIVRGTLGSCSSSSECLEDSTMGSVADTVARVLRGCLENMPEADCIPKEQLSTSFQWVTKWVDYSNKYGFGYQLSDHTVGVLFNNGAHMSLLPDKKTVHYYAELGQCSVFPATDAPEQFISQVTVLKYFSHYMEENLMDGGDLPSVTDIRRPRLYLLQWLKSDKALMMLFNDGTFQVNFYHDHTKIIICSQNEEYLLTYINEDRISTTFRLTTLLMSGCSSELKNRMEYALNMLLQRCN

CAMK2G = CAMK2G (Homo sapiens, UniProt Q13555)
CSNK1A1 = CSNK1A1 (Homo sapiens, UniProt P48729)
SYK = SYK (Homo sapiens, UniProt P43405)
JNK1 = molecular target: T6, JNK1 (Homo sapiens, UniProt P45983)
T6 construct: gene MAPK8

SRPK1 = SRPK1 (Homo sapiens, UniProt Q96SB4)
YANK3 = molecular target: T7, YANK3 (Homo sapiens, UniProt Q86UX6)
T7 construct: gene STK32C

YSK4 = molecular target: T8, YSK4 (Homo sapiens, UniProt Q56UN5)
T8 construct: gene MAP3K19
T8 sequence (Q56UN5 whole entry): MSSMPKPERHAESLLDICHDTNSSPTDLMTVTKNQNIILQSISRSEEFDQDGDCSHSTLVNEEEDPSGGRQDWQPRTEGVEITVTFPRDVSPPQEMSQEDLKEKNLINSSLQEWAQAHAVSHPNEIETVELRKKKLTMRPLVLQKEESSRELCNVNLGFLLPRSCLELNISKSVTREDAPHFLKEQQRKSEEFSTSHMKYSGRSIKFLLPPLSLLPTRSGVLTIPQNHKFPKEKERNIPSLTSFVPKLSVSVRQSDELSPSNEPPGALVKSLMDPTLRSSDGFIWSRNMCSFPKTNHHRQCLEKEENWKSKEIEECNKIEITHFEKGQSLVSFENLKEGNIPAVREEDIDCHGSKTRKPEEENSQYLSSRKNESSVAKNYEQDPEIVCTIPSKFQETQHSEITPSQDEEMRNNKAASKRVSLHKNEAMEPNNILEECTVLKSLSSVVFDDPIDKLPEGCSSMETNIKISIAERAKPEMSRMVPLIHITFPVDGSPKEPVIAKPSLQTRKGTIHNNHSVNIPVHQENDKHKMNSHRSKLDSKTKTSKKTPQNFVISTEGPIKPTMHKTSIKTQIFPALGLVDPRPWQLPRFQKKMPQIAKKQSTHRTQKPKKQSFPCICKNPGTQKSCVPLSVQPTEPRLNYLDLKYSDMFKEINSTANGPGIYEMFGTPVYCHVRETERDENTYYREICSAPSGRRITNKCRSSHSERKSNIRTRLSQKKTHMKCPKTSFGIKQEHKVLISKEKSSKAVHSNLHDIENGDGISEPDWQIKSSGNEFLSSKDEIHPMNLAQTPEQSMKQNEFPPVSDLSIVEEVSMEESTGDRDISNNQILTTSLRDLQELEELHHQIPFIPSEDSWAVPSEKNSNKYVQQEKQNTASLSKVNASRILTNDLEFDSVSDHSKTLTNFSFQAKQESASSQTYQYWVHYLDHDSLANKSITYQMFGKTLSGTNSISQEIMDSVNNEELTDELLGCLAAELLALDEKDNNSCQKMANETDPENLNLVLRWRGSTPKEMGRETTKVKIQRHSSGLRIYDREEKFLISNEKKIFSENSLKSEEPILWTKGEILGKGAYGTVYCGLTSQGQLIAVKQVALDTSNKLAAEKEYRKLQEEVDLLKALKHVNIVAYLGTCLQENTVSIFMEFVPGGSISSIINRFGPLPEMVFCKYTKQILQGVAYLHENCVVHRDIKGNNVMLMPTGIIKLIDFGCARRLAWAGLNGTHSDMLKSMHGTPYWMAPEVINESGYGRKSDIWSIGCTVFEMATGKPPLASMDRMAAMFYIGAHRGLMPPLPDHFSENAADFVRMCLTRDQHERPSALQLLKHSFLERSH

ASK2 = molecular target: T9, ASK2 (Homo sapiens, UniProt O95382)
T9 construct: gene MAP3K6

Structure (SMILES): Cc1ccc(NC(=O)c2cccc(C(F)(F)F)c2)cc1Nc1cc(-c2cccnc2)nc2[nH]ccc12 [HZX-02-059]
- remaining binding at 1 µM (p38-beta): 64%
- remaining binding at 1 µM (PRKG2): 89%
- remaining binding at 1 µM (NLK): 100%
- remaining binding at 1 µM [1]: 89%
- remaining binding at 1 µM (ZAK): 17%
- remaining binding at 1 µM [2]: 100%
- remaining binding at 1 µM (RET(V804L)): 100%
- remaining binding at 1 µM (GRK7): 80%
- remaining binding at 1 µM [3]: 77%
- remaining binding at 1 µM (SGK3): 100%
- remaining binding at 1 µM (SRMS): 100%
- remaining binding at 1 µM (CDKL1): 89%
- remaining binding at 1 µM (EPHA7): 66%
- remaining binding at 1 µM (EGFR(G719C)): 96%
- remaining binding at 1 µM (MAP3K4): 100%
- remaining binding at 1 µM (PLK2): 99%
- remaining binding at 1 µM (CAMK2G): 97%
- remaining binding at 1 µM (CSNK1A1): 77%
- remaining binding at 1 µM (SYK): 100%
- remaining binding at 1 µM (JNK1): 84%
- remaining binding at 1 µM (SRPK1): 95%
- remaining binding at 1 µM (YANK3): 81%
- remaining binding at 1 µM (YSK4): 100%
- remaining binding at 1 µM (ASK2): 66%
